Test results taken from US20240269157A1, “COMPOSITIONS AND METHODS FOR OVERCOMING MICROENVIRONMENT-MEDIATED RESISTANCE VIA E-SELECTIN TARGETING” (GLYCOMIMETICS, INC., priority 2021, published 2024).

Legend:
luc-MV4.11 cells = experiment: MV4.11 AML model survival; assay type: in vivo, NSG mice; settings: 40 mg/kg Compound A i.p., 100 mg/kg venetoclax oral, 14 days once daily
Description: To evaluate the efficacy of targeting E-selectin with Compound A in combination with venetoclax, an in vivo MV4.11 AML model was employed (FIG. 16).
luc-MV4.11 cells (5×10^6 cells/mouse) were transplanted into NSG mice. Mice were divided into four groups: vehicle treatment only; 40 mg/kg of Compound A (intraperitoneal, 14 day once daily); 100 mg/kg venetoclax (oral, 14 days once daily), and a combination of 40 mg/kg Compound A and 100 mg/kg venetoclax. Drug treatment was initiated on day 10 post-transplantation.

AML cells in bone marrow = experiment: Intra-vital 2-photon imaging of AML cell motility in bone marrow; assay type: in vivo, triple reporter mice; settings: from 2.2 μm/min, p<0.001; i.v. administration
From the text: (§1) Intra-vital imaging was employed to investigate the effects of Compound B on AML cell motility in the bone marrow of triple reporter mice (Blood: dextran-TRITC; Host T-cells: DsRed; Host myeloid CD11 cells: EYFP) injected with AML cells carrying a turquoise fluorescent protein reporter gene. […] Individual cells were dislodged from the niche and traveled long-distance (FIG. 17C). The combined inhibition of E-selectin and CXCR4 depleted bone marrow vascular niche areas of leukemia cells.

[1] = test system: patient-derived primary AML xenograft (JAK2 and c-Kit); experiment: PDX model (mutations in JAK2 and c-Kit), LSC retention and CyTOF of BM cells; assay type: in vivo, mice
From the text: as §1
In order to better understand how the augmented AML mobilization improves the efficacy of AML therapy, BM cells from PDX mice treated for 2 weeks with Compound A, Compound B, venetoclax/HMA (Ven/HMA), and their combinations were analyzed by single-cell proteomics (CyTOF). […] However, pharmacological antagonists of E-selectin (Compound A) or E-selectin/CXCR4 (Compound B) protected endothelial cells from Ven/HMA-induced detrimental insults through upregulation of survival signaling cascades, including pAKT, pERK, pMAPK and […] eNOS expression in endothelial cells compared to Ven/HMA treatment alone.

[2] = test system: leukemia cells with ECs and MSCs; settings: Zhang et al., 2016, cited from earlier work
leukemia cells in the BM = settings: in vivo; Zhang et al., 2016; cited from earlier work
[3] = in combination with Ven/HMA, 2 weeks, CyTOF of BM cells

## CC1(C)CCC(CN2CCN(c3ccc(C(=O)NS(=O)(=O)c4ccc(NCC5CCOCC5)c([N+](=O)[O-])c4)c(Oc4cnc5[nH]ccc5c4)c3)CC2)=C(c2ccc(Cl)cc2)C1 [venetoclax]
luc-MV4.11 cells
  median survival time (MST): 46 days

## CCC1CC(C(=O)NCCNCc2ccc(CN3CCCNCCNCCCNCC3)c(Br)c2)CC(OC2OC(CO)C(O)C(O[C@@H](CC3CCCCC3)C(=O)O)C2NC(C)=O)C1OC1OC(C)C(O)C(O)C1O (stereo partly drawn) [Compound B]
AML cells in bone marrow
  AML cell motility: 5.4 μm/min
[1]; [3]
  levels of E-selectin ligand, mTOR, pFAK, pRb, cMyc: diminished
  p21 and cleaved caspase3: increasing
[1]; mouse, in vivo
  protection of MSC: protected
[1]; upregulated pAKT, pERK, pMAPK, decreased eNOS vs Ven/HMA alone
  protection of endothelial cells from Ven/HMA-induced detrimental insults: protected
[2]
  leukemia cell adhesion to ECs and MSCs: markedly reduced
[2]; in vitro
  BM-mediated protection of leukemic cells during FLT3-targeted therapy: eliminated
Leukemia cells in the BM
  leukemia cells in the BM: effectively reduced
